One experiment has as its target T1, KCNQ2/3 channels (Homo sapiens, UniProt O43525+O43526).
T1 construct: expressed in transfected cells; host or cells: CHO-K1
The experiment in a line: Fluorescence assay using a voltage sensitive dye (fluorimetry). The settings on record: CHO-K1 cells expressing KCNQ2/3 channels; for Emax: relative to retigabine = 100%, read-out: Fluorimetry % efficacy (retigabine = 100%). The format is cell-based. As for the experimental part:
Method I. Fluorescence Assay Using a Voltage Sensitive Dye (Fluorimetry)
[…] CHO-K1 cells expressing KCNQ2/3 channels are cultivated adherently at 37° C., 5% CO2 and 95% humidity in cell culture bottles (e.g. 80 cm^2 TC flasks, Nunc) with DMEM-high glucose (Sigma Aldrich, D7777) including 10% FCS (PAN Biotech, e.g. 3302-P270521) or alternatively MEM Alpha Medium (1×, liquid, Invitrogen, #22571), 10% fetal calf serum (FCS) (Invitrogen, #10270-106, heat-inactivated) and the necessary selection antibiotics.
Before being sown out for the measurements, the cells are washed with 1×DPBS buffer Ca^2+/Mg^2+-free (e.g. Invitrogen, #14190-094) and detached from the bottom of the culture vessel by using Accutase (PAA Laboratories, #L11-007) (incubation with Accutase for 15 min at 37° C.). The cell number is determined using a CASY™ cell counter (TCC, Schärfe System). Depending on the optimal density for each individual cell line, 20,000-30,000 cells/well/100 μl are seeded onto 96-well Corning™ CellBIND™ assay plates (Flat Clear Bottom Black Polystyrene Microplates, #3340). Freshly seeded cells are then left to settle for one hour at room temperature, followed by incubation for 24 hours at 37° C., 5% CO2 and 95% humidity.
The voltage-sensitive fluorescent dye from the Membrane Potential Assay Kit (Red™ Bulk format part R8123 for FLIPR, MDS Analytical Technologies™) is prepared by dissolving the contents of one vessel Membrane Potential Assay Kit Red Component A in 200 ml of extracellular buffer (ES buffer, 120 mM NaCl, 1 mM KCl, 10 mM HEPES, 2 mM CaCl2, 2 mM MgCl2, 10 mM glucose; pH 7.4). After removal of the nutrient medium, the cells are washed once with 200 μl of ES buffer, then loaded for 45 min at room temperature in 100 μl of dye solution in the dark.
Fluorescence measurements are carried out in a BMG Labtech FLUOstar™, BMG Labtech NOVOstar™ or BMG Labtech POLARstar™ instrument (525 nm excitation, 560 nm emission, Bottom Read mode). After incubation with the dye, 50 μl of the test substances in the desired concentrations, or 50 μl of ES buffer for control purposes, are applied to the wells of the assay plate and incubated for 30 min at room temperature while being shielded from light. The fluorescence intensity of the dye is then measured for 5 min and the fluorescence value F1 of each well is thus determined at a given, constant time. 15 μl of a KCl solution are then added to each well (final concentration of potassium ions 92 mM). The change in fluorescence intensity is subsequently monitored until all the relevant values have been obtained (mainly 5-30 min). At a given time post KCl application, a fluorescence value F2 is determined, in this case at the time of the fluorescence peak.
For calculation, the fluorescence intensity F2 is corrected for the fluorescence intensity F1, and the activity (ΔF/F) of the target compound on the potassium channel is determined as follows:
In order to determine whether a substance has agonistic activity,
[formula] can be related to
[formula] of control wells.
[formula] is determined by adding to the well only the buffer solution instead of the test substance, determining the value F1K of the fluorescence intensity, adding the potassium ions as described above, and measuring a value F2K of the fluorescence intensity. F2K and F1K are then calculated as follows: […]
A substance has an agonistic activity on the potassium channel if
[formula] is greater than
Independently of the comparison of
[formula] it is possible to conclude that a target compound has agonistic activity if
[formula] increases dose dependently.
Calculations of EC50 and IC50 values are carried out with the aid of ‘Prism v4.0’ software (Graph Pad Software™).

The test system of experiment [1] is withdrawal reflex of the rat tail (tail flick) in response to a radiant heat beam. The experiment in a line: Low-intensity tail flick test (rat). The format is in vivo. The settings on record: po, peroral; for inhibition in vivo at 6.81 mg/kg / inhibition in vivo at 10 mg/kg: read-out: Low intensity tail flick, rat, peroral, MPE (dose); for ED50: at time of maximum efficacy. As to the method: Method II. Low-Intensity Tail Flick Test (Rat)
In the low-intensity tail flick test, the determination of the antinociceptive effect of the compounds according to the invention towards an acute noxious thermal stimulus is carried out by measuring the withdrawal reflex of the rat tail (tail flick) in response to a radiant heat beam (analgesia meter; model 2011 of the company Rhema Labortechnik, Hofheim, Germany) according to the method described by D'Amour and Smith (J. Pharm. Exp. Ther. 72, 74 79 (1941). To this end, the rats were placed in a plexiglas restrainer, and a low-intensity radiant heat beam (48° C.) was focused onto the dorsal surface of the tail root. The stimulus intensity was adjusted to result in a mean pre-drug control withdrawal latency of about 7 s, thus also allowing a supraspinal modulation of the spinally mediated acute nociceptive reflex. A cutoff time of 30 s was applied to avoid tissue damage. Male Sprague-Dawley rats (Janvier, Le Genest St. Isle, Frankreich) with weights of 200-250 g were used. 10 rats were used per group. Before administration of a compound according to the invention, the animals were pre-tested twice in the course of five minutes and the mean of these measurements was calculated as the pre-test mean. The antinociceptive effect was determined at 20, 40 and 60 min after peroral compound administration. The antinociceptive effect was calculated based on the increase in the tail withdrawal latency according to the following formula and is expressed as percentage of the maximum possible effect (MPE [%]): MPE=[(T1−T0)/(T2−T0)]*100
In this, T0 is the control latency time before and T1 the latency time after administration of the compound, T2 is the cutoff time and MPE is the maximum possible effect. Employing variant analysis (repeated measures ANOVA) allowed testing of statistically significant differences between the compounds according to the invention and the vehicle group. The significance level was set to p≦0.05. To determine the dose dependency, the particular compound according to the invention was administered in 3-5 logarithmically increasing doses, including a threshold dose and a maximum effective dose, and the ED50 values were determined with the aid of regression analysis. The ED50 calculation was performed at the time of maximum efficacy (usually 20 min after administration of the compounds).
Background: Hot-plate and tail-flick tests time the reaction to a heat stimulus.

The text below walks through data of US9073862B2, “Substituted 2-oxy-quinoline-3-carboxamides as KCNQ2/3 modulators” (Grünenthal GmbH, priority 2010, dated 2015).

The structures appear in SMILES notation.

Turning to `CCOc1nc2cc(C(F)(F)F)ccc2c(C)c1C(=O)NCc1ccc(F)c(C)c1` [Example 24, 2-ethoxy-N-[(4-fluoro-3-methyl-phenyl)-methyl]-4-methyl-7-(trifluoromethyl)-quinoline-3-carboxylic acid amide], at KCNQ2/3 channels, a half-maximal effect (EC50) was put at 53 nM and the Emax came to 108%. For the same compound, the inhibition in vivo at 6.81 mg/kg in experiment [1] was found to be 17%.
`CCOc1nc2cc(C(F)(F)F)ccc2c(C)c1C(=O)NCc1ccc(F)cc1` [Example 3, 2-ethoxy-N-[(4-fluorophenyl)-methyl]-4-methyl-7-(trifluoromethyl)-quinoline-3-carboxylic acid amide]: on KCNQ2/3 channels, the response was half-maximal at 39 nM (EC50) and the Emax worked out at 122%. Also, the 50% effective dose (ED50) (commonly the dose at which the effect has come halfway, by size or by number of responders) in experiment [1] was determined as 2.5 mg/kg.
Regarding `Cc1c(C(=O)NCc2cccc(F)c2)c(OC(C)C)nc2cc(C(F)(F)F)ccc12` [Example 10, N-[(3-fluorophenyl)-methyl]-2-isopropoxy-4-methyl-7-(trifluoromethyl)-quinoline-3-carboxylic acid amide], on KCNQ2/3 channels, a half-maximal response (EC50) required 87 nM and the Emax was found to be 175%. The same compound yielded an ED50 in experiment [1] of 3.8 mg/kg.
`COc1nc2cc(C(F)(F)F)ccc2c(C)c1C(=O)NCc1ccc(F)cc1` [Example 5, N-[(4-fluorophenyl)-methyl]-2-methoxy-4-methyl-7-(trifluoromethyl)-quinoline-3-carboxylic acid amide]: at KCNQ2/3 channels, the EC50 (as a rule, the concentration giving half of the maximal effect) was 57 nM and the Emax was found to be 122%. Moreover, the inhibition in vivo at 6.81 mg/kg in experiment [1] was 34%.
On to `CCOc1nc2cc(C(F)(F)F)ccc2c(C)c1C(=O)NCc1ccc(C)c(F)c1` [Example 20, 2-ethoxy-N-[(3-fluoro-4-methyl-phenyl)-methyl]-4-methyl-7-(trifluoromethyl)-quinoline-3-carboxylic acid amide], for which, on KCNQ2/3 channels, the EC50 came out at 72 nM and the Emax amounted to 146%. Also, in experiment [1], the inhibition in vivo at 10 mg/kg came to 24%.
In the same order, the values of `COc1nc2cc(C(F)(F)F)ccc2c(OC)c1C(=O)NCc1ccc(F)cc1` [Example 16, N-[(4-fluorophenyl)-methyl]-2,4-dimethoxy-7-(trifluoromethyl)-quinoline-3-carboxylic acid amide] are 106 nM, 159% and 74%.
As to `COCCOc1nc2cc(C(F)(F)F)ccc2c(C)c1C(=O)NCc1ccc(F)cc1` [Example 8, N-[(4-fluorophenyl)-methyl]-2-(2-methoxy-ethoxy)-4-methyl-7-(trifluoromethyl)-quinoline-3-carboxylic acid amide], on KCNQ2/3 channels, the EC50 was found to be 143 nM and the Emax was 94%. In addition, in experiment [1], the inhibition in vivo at 10 mg/kg worked out at 22%.
Taken in the same sequence, the figures for `COc1nc2cc(C(F)(F)F)ccc2c(C)c1C(=O)NCCCC(C)(C)C` [Example 29, N-(4,4-dimethyl-pentyl)-2-methoxy-4-methyl-7-(trifluoromethyl)-quinoline-3-carboxylic acid amide] were 28 nM, 244% and 28%.
